Measured values from patent US11566007B2, “Ras inhibitors” (Revolution Medicines, Inc., priority 2019, dated 2023).
Where two headings read alike, the source gives them in different places.

How the values were obtained:
NCI-H358 (K-Ras G12C) = experiment: CellTiter-Glo cell viability assay, NCI-H358; assay type: cell-based, human; settings: Homo sapiens, NCI-H358, 120 h, class symbols
Procedure, shortened: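 Viability measured by CellTiter-Glo luminescence on day 5 following direct addition of compound to plated cells. Values expressed as percent of mean DMSO signal; curves fitted with a four-parameter logistic model.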

KRAS G12S = KRAS G12S (Homo sapiens (Human), UniProt P01116+P62937, G12S); experiment: Ras-Raf (BRAF RBD) disruption / FRET / MOA assay, KRAS G12S; assay type: biochemical; settings: class symbols
Sequence of KRAS G12S (P01116-2 other isoform, or with tags, fused parts or gaps G12S): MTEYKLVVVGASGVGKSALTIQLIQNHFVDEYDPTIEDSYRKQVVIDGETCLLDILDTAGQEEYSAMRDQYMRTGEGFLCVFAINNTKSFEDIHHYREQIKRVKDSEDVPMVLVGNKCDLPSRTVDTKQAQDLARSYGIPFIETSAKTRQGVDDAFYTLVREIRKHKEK
Sequence of KRAS G12S (P62937 whole entry): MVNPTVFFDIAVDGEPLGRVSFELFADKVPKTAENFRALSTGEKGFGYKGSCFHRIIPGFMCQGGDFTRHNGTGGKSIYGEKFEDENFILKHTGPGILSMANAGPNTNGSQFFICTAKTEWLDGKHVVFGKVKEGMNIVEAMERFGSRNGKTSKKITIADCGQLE
Procedure, shortened: (§1)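 Compound-driven ternary complex of nucleotide-loaded Ras with cyclophilin A, disrupting BRAF RBD binding. 10-point 3-fold dilution from 30 μM final, 3 h at 25° C, then anti-His Eu-W1024 (10 nM) and anti-GST allophycocyanin (50 nM) for 1.5 h. IC50 from TR-FRET ratio decrease versus DMSO.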

KRAS G12V = KRAS G12V (Homo sapiens (Human), UniProt P01116+P62937, G12V); experiment: Ras-Raf (BRAF RBD) disruption / FRET / MOA assay, KRAS G12V; assay type: biochemical
Sequence of KRAS G12V (P01116-2 other isoform, or with tags, fused parts or gaps G12V): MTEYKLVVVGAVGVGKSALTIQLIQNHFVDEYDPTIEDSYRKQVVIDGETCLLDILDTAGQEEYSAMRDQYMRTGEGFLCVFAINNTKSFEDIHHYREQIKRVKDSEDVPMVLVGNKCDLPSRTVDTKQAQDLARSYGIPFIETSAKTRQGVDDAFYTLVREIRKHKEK
Sequence of KRAS G12V (P62937 whole entry): as the sequence (P62937 whole entry) above
Procedure, shortened: as §1

KRAS G13D = KRAS G13D (Homo sapiens (Human), UniProt P01116+P62937, G13D); experiment: Ras-Raf (BRAF RBD) disruption / FRET / MOA assay, KRAS G13D; assay type: biochemical
Sequence of KRAS G13D (P01116-2 other isoform, or with tags, fused parts or gaps G13D): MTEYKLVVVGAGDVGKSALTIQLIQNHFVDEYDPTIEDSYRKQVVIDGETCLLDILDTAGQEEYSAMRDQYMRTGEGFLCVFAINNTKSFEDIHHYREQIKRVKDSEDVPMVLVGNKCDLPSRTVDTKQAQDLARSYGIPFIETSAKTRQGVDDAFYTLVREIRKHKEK
Sequence of KRAS G13D (P62937 whole entry): as the sequence (P62937 whole entry) above
Procedure, shortened: as §1

KRAS Q61H = KRAS Q61H (Homo sapiens (Human), UniProt P01116+P62937, Q61H); experiment: Ras-Raf (BRAF RBD) disruption / FRET / MOA assay, KRAS Q61H; assay type: biochemical; settings: Ras-Raf disruption/FRET/MOA assay; class symbols; read-out: KRAS Q61H FRET data IC50
Sequence of KRAS Q61H (P01116-2 other isoform, or with tags, fused parts or gaps Q61H): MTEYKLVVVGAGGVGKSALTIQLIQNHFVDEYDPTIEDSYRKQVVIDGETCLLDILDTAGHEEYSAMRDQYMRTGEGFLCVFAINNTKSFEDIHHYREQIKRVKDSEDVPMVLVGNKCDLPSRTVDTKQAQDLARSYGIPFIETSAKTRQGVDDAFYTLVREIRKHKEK
Sequence of KRAS Q61H (P62937 whole entry): as the sequence (P62937 whole entry) above
Procedure, shortened: (§2)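 Compounds (30 μM top final, 10-point 3-fold dilutions) incubated 3 h at 25° C with nucleotide-loaded Ras, cyclophilin A and BRAF RBD. Detection with 10 nM anti-His Eu-W1024 and 50 nM anti-GST allophycocyanin over another 1.5 h. Lowered TR-FRET ratio relative to DMSO wells gives IC50.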

NRAS Q61R = NRAS Q61R (Homo sapiens (Human), UniProt P01111+P62937, Q61R); experiment: Ras-Raf (BRAF RBD) disruption / FRET / MOA assay, NRAS Q61R; assay type: biochemical; settings: NRAS Q61R; Ras-Raf disruption/FRET/MOA assay; read-out: IC50* NRAS Q61R FRET data
Sequence of NRAS Q61R (P01111 whole entry Q61R): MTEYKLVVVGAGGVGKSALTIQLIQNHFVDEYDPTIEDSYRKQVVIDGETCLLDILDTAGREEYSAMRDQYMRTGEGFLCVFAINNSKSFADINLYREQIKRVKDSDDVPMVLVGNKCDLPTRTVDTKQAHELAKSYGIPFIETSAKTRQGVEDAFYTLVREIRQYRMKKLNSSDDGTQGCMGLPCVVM
Sequence of NRAS Q61R (P62937 whole entry): as the sequence (P62937 whole entry) above
Procedure, shortened: as §2

NRAS Q61K = NRAS Q61K (Homo sapiens (Human), UniProt P01111+P62937, Q61K); experiment: Ras-Raf (BRAF RBD) disruption / FRET / MOA assay, NRAS Q61K; assay type: biochemical; settings: NRAS Q61K; Ras-Raf disruption/FRET/MOA assay; read-out: IC50* NRAS Q61K FRET data
Sequence of NRAS Q61K (P01111 whole entry Q61K): as the sequence (P01111 whole entry Q61R) above, with R61K counted along it
Sequence of NRAS Q61K (P62937 whole entry): as the sequence (P62937 whole entry) above
Procedure, shortened: as §2

[1] = NCI-H358, 5-day treatment, read-out: Additional H358 Cell Viability assay data (K-Ras G12C, IC50)
[2] = Ras-Raf disruption/FRET/MOA assay, read-out: KRAS G12S FRET data IC50
[3] = read-out: IC50* KRAS G12V FRET data
[4] = read-out: IC50* KRAS G13D FRET data
[5] = read-out: Additional H358 Cell Viability assay data (K-Ras G12C, IC50, uM), NCI-H358, 5-day treatment

SMILES	IC50 (NCI-H358 (K-Ras G12C); [1]) [µM]	IC50 (KRAS G12S; [2]) [nM]	IC50 (KRAS G12V; [3]) [nM]	IC50 (KRAS G13D; [4]) [nM]	IC50 (KRAS Q61H) [nM]	IC50 (NRAS Q61R) [nM]	IC50 (NRAS Q61K) [nM]	IC50 (NCI-H358 (K-Ras G12C); [5]) [µM]	IC50 (KRAS G12S; KRAS G12S FRET data IC50, Ras-Raf disruption/FRET/MOA assay) [nM]	IC50 (KRAS G12V; IC50* KRAS G12V FRET data) [nM]	IC50 (KRAS G13D; IC50* KRAS G13D FRET data) [nM]
C=CC(=O)N1CC[C@H](C(=O)N(C)[C@H](C(=O)N[C@H]2Cc3coc(n3)-c3ccc4c(c3)c(c(-c3cccnc3[C@H](C)OC)n4CC)CC(C)(C)COC(=O)[C@@H]3CCCN(N3)C2=O)C(C)C)C1 (atropisomer, axis not shown) [Example A468]	0.01 to 0.1	1000 to 10000	1000 to 10000	1000 to 10000	100 to 1000	> 10000	1000 to 10000				
C=CC(=O)N1CCN(C(=O)N(C)[C@H](C(=O)N[C@H]2Cc3nc(cs3)-c3ccc4c(c3)c(c(-c3cccnc3[C@H](C)OC)n4CC)CC(C)(C)COC(=O)[C@@H]3CCCN(N3)C2=O)C(C)C)CC1 (atropisomer, axis not shown) [Example A491]	< 0.01	10 to 100	10 to 100	100 to 1000	10 to 100	10 to 100	10 to 100				
C=CC(=O)N1CC[C@H](C(=O)N(C)[C@H](C(=O)N[C@H]2Cc3nc(cs3)-c3ccc4c(c3)c(c(-c3cccnc3[C@H](C)OC)n4CC(F)(F)F)CC(C)(C)COC(=O)[C@@H]3CCCN(N3)C2=O)C(C)C)C1 (atropisomer, axis not shown) [Example A502]	< 0.01	100 to 1000	1000 to 10000	1000 to 10000	100 to 1000	100 to 1000	100 to 1000				
C=CC(=O)N1CC[C@H](C(=O)N(C)[C@H](C(=O)N[C@H]2Cc3cc(CF)cc(c3)-c3ccc4c(c3)c(c(-c3cccnc3[C@H](C)OC)n4CC)CC(C)(C)COC(=O)[C@@H]3CCCN(N3)C2=O)C(C)C)C1 (atropisomer, axis not shown) [Example A503]	< 0.01	1000 to 10000	1000 to 10000	1000 to 10000	100 to 1000	1000 to 10000	1000 to 10000				
C=CC(=O)N1CC[C@H](C(=O)N(C)[C@H](C(=O)N[C@H]2Cc3cccc(c3)-c3ccc4c(c3)c(c(-c3cc(CN(C)C)cnc3[C@H](C)OC)n4CC)CC(C)(C)COC(=O)[C@@H]3CCCN(N3)C2=O)C(C)C)C1 (atropisomer, axis not shown) [Example A522]	< 0.01	1000 to 10000	1000 to 10000	1000 to 10000	100 to 1000	1000 to 10000	1000 to 10000				
C=CC(=O)N1CCO[C@H]2CN(C(=O)N(C)[C@H](C(=O)N[C@H]3Cc4cc(C(F)F)cc(n4)-c4ccc5c(c4)c(c(-c4cccnc4[C@H](C)OC)n5CC(F)(F)F)CC(C)(C)COC(=O)[C@@H]4CCCN(N4)C3=O)C(C)C)C[C@H]21 (atropisomer, axis not shown) [Example A540]					100 to 1000	1000 to 10000	1000 to 10000	< 0.01	1000 to 10000	1000 to 10000	1000 to 10000
C=CC(=O)N1CCO[C@@H]2CN(C(=O)N(C)[C@H](C(=O)N[C@H]3Cc4nc(cs4)-c4ccc5c(c4)c(c(-c4cccnc4[C@H](C)OC)n5CC)CC(C)(C)COC(=O)[C@@H]4CCCN(N4)C3=O)C(C)C)C[C@H]21 (atropisomer, axis not shown) [Example A543]	< 0.01	100 to 1000	100 to 1000	100 to 1000	10 to 100	100 to 1000	10 to 100				
C=CC(=O)N1CCO[C@H]2CN(C(=O)N(C)[C@H](C(=O)N[C@H]3Cc4nc(cs4)-c4ccc5c(c4)c(c(-c4cccnc4[C@H](C)OC)n5CC)CC(C)(C)COC(=O)[C@@H]4CCCN(N4)C3=O)C(C)C)C[C@@H]21 (atropisomer, axis not shown) [Example A544]	< 0.01	100 to 1000	100 to 1000	100 to 1000	10 to 100	100 to 1000	10 to 100				
C=CC(=O)N1CCOC2(CCN(C(=O)N(C)[C@H](C(=O)N[C@H]3Cc4nsc(n4)-c4ccc5c(c4)c(c(-c4cccnc4[C@H](C)OC)n5CC)CC(C)(C)COC(=O)[C@@H]4CCCN(N4)C3=O)C(C)C)CC2)C1 (atropisomer, axis not shown) [Example A545]	0.01 to 0.1	100 to 1000	100 to 1000	100 to 1000	10 to 100	100 to 1000	10 to 100				
C=CC(=O)N1CC[C@@H]2[C@H]1CN2C(=O)N(C)[C@H](C(=O)N[C@H]1Cc2nc(cs2)-c2ccc3c(c2)c(c(-c2cccnc2[C@H](C)OC)n3CC)CC(C)(C)COC(=O)[C@@H]2CCCN(N2)C1=O)C(C)C (atropisomer, axis not shown) [Example A546]	< 0.01	1000 to 10000	100 to 1000	1000 to 10000	100 to 1000	100 to 1000	100 to 1000				
CCn1c(-c2cccnc2[C@H](C)OC)c2c3cc(ccc31)-c1cccc(c1)C[C@H](NC(=O)[C@H](C(C)C)N1CC[C@@]3(CCN(C(=O)C#C[C@H]4COCCN4C)C3)C1=O)C(=O)N1CCC[C@H](N1)C(=O)OCC(C)(C)C2 (atropisomer, axis not shown) [Example A551]		1000 to 10000	1000 to 10000	1000 to 10000	100 to 1000	1000 to 10000	1000 to 10000	< 0.01			
CCn1c(-c2cccnc2[C@H](C)OC)c2c3cc(ccc31)-c1cccc(c1)C[C@H](NC(=O)[C@H](C(C)C)N1CO[C@@]3(CCN(C(=O)/C=C/CN(C)C)C3)C1=O)C(=O)N1CCC[C@H](N1)C(=O)OCC(C)(C)C2 (atropisomer, axis not shown) [Example A558]	0.01 to 0.1	100 to 1000	1000 to 10000	100 to 1000	100 to 1000	1000 to 10000	1000 to 10000				
CO[C@@H](COC1CN(C(=O)C#CC(C)(C)N(C)C)C1)C(=O)N[C@H]1Cc2coc(n2)-c2ccc3c(c2)c(c(-c2cccnc2[C@H](C)OC)n3CC(F)(F)F)CC(C)(C)COC(=O)[C@@H]2CCCN(N2)C1=O (atropisomer, axis not shown) [Example A579]	< 0.01	1000 to 10000	1000 to 10000	> 10000	1000 to 10000	> 10000	> 10000				
C=CC(=O)N1CCO[C@H]2CCN(C(=O)N(C)[C@H](C(=O)N[C@H]3Cc4nc(cs4)-c4ccc5c(c4)c(c(-c4cccnc4[C@H](C)OC)n5CC)CC(C)(C)COC(=O)[C@@H]4CCCN(N4)C3=O)C(C)C)C[C@H]21 (atropisomer, axis not shown) [Example A580]	0.01 to 0.1	100 to 1000	100 to 1000	100 to 1000	10 to 100	100 to 1000	10 to 100				
C=CC(=O)NCCN1CCN(C(=O)N(C)[C@H](C(=O)N[C@H]2Cc3nc(cs3)-c3ccc4c(c3)c(c(-c3cccnc3[C@H](C)OC)n4CC)CC(C)(C)COC(=O)[C@@H]3CCCN(N3)C2=O)C(C)C)CC1 (atropisomer, axis not shown) [Example A582]	0.01 to 0.1	100 to 1000	100 to 1000	100 to 1000	10 to 100	100 to 1000	10 to 100				
CCn1c(-c2cccnc2[C@H](C)OC)c2c3cc(ccc31)-c1cccc(c1)C[C@H](NC(=O)[C@@H](CO[C@@H]1CCN(C(=O)C#CC(C)(C)N(C)C)C1)C(C)C)C(=O)N1CCC[C@H](N1)C(=O)OCC(C)(C)C2 (atropisomer, axis not shown) [Example A584]	< 0.01	> 10000	1000 to 10000	> 10000	1000 to 10000	> 10000	> 10000				
CCn1c(-c2cccnc2[C@H](C)OC)c2c3cc(ccc31)-c1cc(CF)cc(c1)C[C@H](NC(=O)[C@@H](COC1CN(C(=O)C#CC(C)(C)N(C)C)C1)C(C)C)C(=O)N1CCC[C@H](N1)C(=O)OCC(C)(C)C2 (atropisomer, axis not shown) [Example A587]	< 0.01	> 10000	> 10000	> 10000	> 10000	> 10000	> 10000				
